Experimental data as given in patent publication US20230174975A1 (priority 2020, published 2023).
Structures can show the parent of a compound that is named as a salt. Where two headings read alike, the source gives them in different places.

Tests used:
[1] = test system: 229E virus; experiment: organism not typed; format: cell-based, human 229E coronavirus; details: for combination effect with Camostat mesylate (in words) / combination effect with IFNα 4b (in words) / inhibition of virus replication: PAC-MAN with the guide; for inhibition of virus replication: no drug, 24 hpi, vs NT6
[2] = test system: 229E; format: cell-based, human 229E coronavirus
[3] = test system: SARS-CoV-2; format: cell-based; details: supernatant test, SARS-CoV-2 MOI=0.01
[4] = test system: 229E; format: cell-based, human 229E coronavirus; remark: listed apart in the source
[5] = test system: transmembrane protease, serine 2 (TMPRSS2); experiment: Knockdown of endogenous gene in A549 cells by Cas13d and crRNAs (qPCR); format: cell-based, human; details: 3 days
[6] = test system: methylenetetrahydrofolate dehydrogenase 1 (MTHFD1); experiment: as above; format: cell-based, human; details: 3 days
[7] = single agent alone, vs control (NT)

CN(C)C(=O)COC(=O)Cc1ccc(OC(=O)c2ccc(NC(=N)N)cc2)cc1 [Camostat mesylate, reference compound]
cytotoxicity: no obvious cytotoxicity
EC50 [1]: ~500 µM
combination effect of the drug with PAC-MAN (in words) [1]: synergistic effects
fold decrease of virus titer [1, 7]: 2.4 fold

N20: crRNA tested against live SARS-CoV-2 in Cas13d VeroE6 cells; best crRNA of that screen (guide ACUUCAUCAAUUAUGUCAGUUU; chemistry not given here)
protection of cells from death by 229E infection (in words) ([2]; 229E MOI 0.01, up to 5 day infection): protected the cells from death
protection of cells from death at different MOIs (in words) ([2]; 229E MOI up to 1.0 (FIG. 21A)): protected the cells from death
combination effect with Camostat mesylate (in words) [1]: promising synergistic effect
combination effect with IFNα 4b (in words) [1]: additive effect
fold decrease of virus titer ([1]; PAC-MAN with the guide combined with IFNα 4b, vs NT): 10.1 fold
inhibition of virus replication [1]: 84%
fold decrease of virus titer [1, 7]: 6.2 fold
repression efficiency (viral RNA load) [3]: 96%
inhibition of virus replication ([4]; guide screening, MRC-5 cells, viral titer in supernatant by RT-qPCR (FIG. 11)): 95%

R19: crRNA targeting SARS-CoV-2 RdRP sequence (Table 8); not 229E crR19 (guide CACCATCGTAACAATCAAAGTA; chemistry not given here)
combination effect with Camostat mesylate (in words) [1]: promising synergistic effect
combination effect with IFNα 4b (in words) [1]: minus effect
inhibition of virus replication [1]: 50%

SEQ ID NO: 13605: crRNA targeting endogenous gene TMPRSS2 (guide TACAGCGTAAAGAAACCACTGCT; chemistry not fully specified)
knockdown of TMPRSS2 mRNA (in words) [5]: efficiently knocked down

SEQ ID NO: 13606: crRNA targeting endogenous gene MTHFD1 (guide CAATATCATAAAAACAGGGCCGG; chemistry not fully specified)
knockdown of MTHFD1 mRNA (in words) [6]: efficiently knocked down

crN1: crRNA (guide) targeting N gene of human 229E coronavirus; not N1 of Table 9 (guide AGCCCAUUUGACUGUAGCCAUC; chemistry not given here)
cells alive [2]: more than 90%
inhibition of virus replication [4]: about 80%

crR8: crRNA (guide) targeting RdRP of human 229E coronavirus (guide AAUCUUUAAUUGCAGCAUCACC; chemistry not given here)
inhibition of virus replication [4]: about 80%

crR19: crRNA (guide) targeting RdRP of human 229E coronavirus; not R19 of Table 9 (guide CCAGCAGAAAUAAUACGGCUAG; chemistry not given here)
inhibition of virus replication [4]: about 80%
